ChEMBL document CHEMBL3638482, “2,3-disubstituted pyrazinesulfonamides as CRTH2 inhibitors” (2014)

Each molecule was assayed against T1, Prostaglandin D2 receptor 2 (Homo sapiens, UniProt Q9Y5Y4) (assay: The inhibitory activity can be investigated by a radioligand binding assay (Sawyer et al., Br. J. Pharmocol 2002, 137, 1163-72). The radioligand binding assay was performed at room temperature in binding buffer (10 mM HEPES/KOH pH […], with protease inhibitor cocktail tablets), containing 1.5 nM [3H]PGD2 (Amersham, 156 Cie/mmol), and 10 ug of hCRTH2 HEK293 (EBNA) cell membrane protein in a final volume of 100 ul in 96 well plates (Corning, USA). Non-specific binding was determined in the presence of 1 uM PGD2 (Cayman, USA). Competing pyrazine sulfonamides were diluted in dimethylsulphoxide so that the total volume of dimethylsulfoxide was kept constant at 1% dimethylsulphoxide (Me2SO). 10 ul of the pyrazine sulfonamides were added. Incubation (60 min at room temperature) was terminated by rapid filtration through 96 wells hydrophobic GF/C Unifilter plates.).
T1 sequence (Q9Y5Y4 whole entry): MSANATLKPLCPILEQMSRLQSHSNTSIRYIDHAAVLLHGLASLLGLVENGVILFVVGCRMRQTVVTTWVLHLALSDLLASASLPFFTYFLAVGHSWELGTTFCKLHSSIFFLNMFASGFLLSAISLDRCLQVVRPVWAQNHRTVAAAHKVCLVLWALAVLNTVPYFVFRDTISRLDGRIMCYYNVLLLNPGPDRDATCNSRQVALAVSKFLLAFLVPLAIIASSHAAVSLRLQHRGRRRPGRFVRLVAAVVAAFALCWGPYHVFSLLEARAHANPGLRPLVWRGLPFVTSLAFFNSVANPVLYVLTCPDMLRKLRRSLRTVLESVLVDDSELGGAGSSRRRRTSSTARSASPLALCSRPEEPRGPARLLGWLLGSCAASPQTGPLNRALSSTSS

SMILES	Ki [nM]
N#Cc1ccc(OCc2ccc(-c3nccnc3NS(=O)(=O)c3ccccc3C(F)(F)F)cc2)cc1	1590
CN(Cc1ccc(-c2nccnc2NS(=O)(=O)c2ccccc2C(F)(F)F)cc1)c1ccc(C#N)cc1	470
O=S(=O)(Nc1nccnc1-c1ccc(COc2ccc(F)cc2)cc1)c1ccccc1C(F)(F)F	480
CCN(Cc1ccc(-c2nccnc2NS(=O)(=O)c2ccccc2C(F)(F)F)cc1)c1ccccc1	590
O=S(=O)(Nc1nccnc1-c1ccc(CN2CCOc3ccccc32)cc1)c1ccccc1C(F)(F)F	620
CN(Cc1ccc(-c2nccnc2NS(=O)(=O)c2ccccc2C(F)(F)F)cc1)c1cccc(F)c1	700
O=S(=O)(Nc1nccnc1-c1ccc(COc2ccc(Cl)nc2)cc1)c1ccccc1C(F)(F)F	720
O=S(=O)(Nc1nccnc1-c1ccc(Cn2c(-c3ccccn3)cc3ccccc32)cc1)c1ccccc1C(F)(F)F	850
O=S(=O)(Nc1nccnc1-c1ccc(Cn2ccc3cc(F)ccc32)cc1)c1ccccc1C(F)(F)F	950
O=S(=O)(Nc1nccnc1-c1ccc(COc2ccccc2)cc1)c1ccccc1C(F)(F)F	1320
CN(Cc1ccc(-c2nccnc2NS(=O)(=O)c2ccccc2C(F)(F)F)cc1)c1ccc(Cl)cc1	1470
CN(Cc1ccc(-c2nccnc2NS(=O)(=O)c2ccccc2Cl)cc1)c1ccc(C#N)cc1	1490
CN(Cc1ccc(-c2nccnc2NS(=O)(=O)c2ccccc2C(F)(F)F)cc1)c1ccc(Cl)c(Cl)c1	1580
O=S(=O)(Nc1nccnc1-c1ccc(Cn2ccc3ccc(F)cc32)cc1)c1ccccc1C(F)(F)F	1930
COc1ccc2c(c1)cc(C)n2Cc1ccc(-c2nccnc2NS(=O)(=O)c2ccccc2Cl)cc1	2210
COc1ccc(OCc2ccc(-c3nccnc3NS(=O)(=O)c3ccccc3C(F)(F)F)cc2)cc1	2600
O=S(=O)(Nc1nccnc1-c1ccc(CN(Cc2ccccc2)c2ccccn2)cc1)c1ccccc1Cl	2640
O=S(=O)(Nc1nccnc1-c1ccc(CN2CCc3ccccc32)cc1)c1ccccc1C(F)(F)F	2690
CN(Cc1ccc(-c2nccnc2NS(=O)(=O)c2ccccc2C(F)(F)F)cc1)c1ccc(Cl)cc1Cl	2820
O=S(=O)(Nc1nccnc1-c1ccc(COc2cccc(Cl)c2)cc1)c1ccccc1C(F)(F)F	2900
CN(Cc1ccc(-c2nccnc2NS(=O)(=O)c2ccccc2Cl)cc1)c1ccc(F)cc1F	2950
Cc1cc2ccccc2n1Cc1ccc(-c2nccnc2NS(=O)(=O)c2ccccc2C(F)(F)F)cc1	3060
O=S(=O)(Nc1nccnc1-c1ccc(CN(Cc2ccccc2)c2ccccn2)cc1)c1ccccc1C(F)(F)F	4440
Cc1cc2cc(Cl)ccc2n1Cc1ccc(-c2nccnc2NS(=O)(=O)c2ccccc2C(F)(F)F)cc1	4650
